Values of other authors as cited in patent publication US10722545B2, “Compound and method for treatment of movement disorders” (priority 2018, dated 2020).

Key:
[1] = tested on: rat cortical neuron cultures; conditions: for glutamate toxicity: isolated or synthetic cannabinoid; for NMDA, AMPA and kainate receptor mediated neurotoxicity: rat cortical neuron cultures, not affected by CB receptor antagonist
[2] = cyclic voltammetry and fenton reaction-based system
[3] = tested on: mice; conditions: oral administration
[4] = tested on: neurons; conditions: neuronal cultures
[5] = tested on: mutant hamster model of dystonia

Compound | glutamate toxicity [1] | NMDA, AMPA and kainate receptor mediated neurotoxicity [1] | antioxidant activity [2] | inhibition of phenyl-p-benzoquinone-induced writhing [3] | protective capacity against glutamate toxicity, head to head with other antioxidants ([1]; compared with alpha-tocopherol and ascorbate) | hydroperoxide toxicity in neurons [4] | antidystonic effects [5]
CCCCCc1cc(O)c2c(c1)OC(C)(C)[C@@H]1CCC(C)=C[C@@H]21 (relative stereo) [THC, (-)-Δ9-trans-tetrahydrocannabinol] | prevented to some extent | reduced | potent antioxidants | least effective | – | – | –
C=C(C)[C@@H]1CCC(C)=C[C@H]1c1c(O)cc(CCCCC)cc1O [CBD, cannabidiol] | prevented to some extent | reduced | potent antioxidants | most effective | superior to both alpha-tocopherol and ascorbate | reduce hydroperoxide toxicity | –
CCCCCc1cc(O)c2c(c1)OC(C)(C)c1ccc(C)cc1-2 [CBN, cannabinol] | – | – | – | least effective | – | – | –
Cc1c(C(=O)c2cccc3ccccc23)c2cccc3c2n1[C@H](CN1CCOCC1)CO3 [WIN55,212-2] | – | – | – | – | – | – | produces antidystonic effects
